Source: article PMC11473416, “Coumarin-chalcone derivatives as dual NLRP1 and NLRP3 inflammasome inhibitors targeting oxidative stress and inflammation in neurotoxin-induced HMC3 and BE(2)-M17 cell models of Parkinson's disease” (Frontiers in Aging Neuroscience, 2024)
Several values for one entry are separate records, joined by “and”; a condition that tells them apart may be missing. Identical values can stand only once.

Assays:
[1] = test system: MPP^+-activated HMC3 cells; assay: cell viability (MTT) in MPP^+-activated HMC3 cells; assay type: cell-based; conditions: Homo sapiens; HMC3, compound 10 μM 8 h pre-treatment, then 4 mM MPP^+ 20 h; MPP^+ alone 63%; MPP^+-untreated = 100%
Experimental: To examine anti-inflammatory potential of LM compounds, HMC3 cells were plated into six-well (2 × 10^5/well) dishes, grown for 20 h, and pre-treated with compounds (10 μM) for 8 h before 4 mM MPP^+ addition for 20 h. The cell viability was evaluated by MTT assay as described, and the release of nitric oxide (NO) in cell culture medium was examined by Griess reagent kit (Thermo Fisher Scientific) based on a classic protocol.

[2] = parameters: method as in Huang C. C. et al., 2021; conditions: parallel artificial membrane permeability assay ref Huang C. C. et al., 2021; cited from earlier work
[3] = test system: CASP1; assay: Western blot CASP1 in MPP^+-stimulated HMC3 cells; assay type: cell-based, human; conditions: HMC3, 4 mM MPP^+ alone; untreated = 100%
Experimental: (§1) HMC3 (2 × 10^5/6-well) or BE(2)-M17 (4 × 10^5/6-well) cells were lysed in buffer (composition: 50 mM Tris-HCl pH8.0, 2 mM EDTA pH8.0, 150 mM NaCl, 0.5% sodium deoxycholate, 0.1% SDS, 50 mM NaF, 1% NP40) containing the protease and/or phosphatase inhibitor cocktail (Sigma-Aldrich). After sonication, the lysates were centrifuged (12,000 × g for 10 min at 4°C) and protein concentrations determined (Bradford protein assay; Bio-Rad, Hercules, CA, USA). Aliquots of protein (20 μg) were separated by electrophoresis using 10%−12% SDS–polyacrylamide gel followed by transfer to a polyvinylidene fluoride (PVDF) membrane. […] The immune complexes were detected using horseradish peroxidase (HRP)-conjugated goat anti-mouse or goat anti-rabbit IgG antibody (1:5,000; GeneTex) and chemiluminescent HRP substrate (Millipore, Burlington, MA, USA). Immunoreactive bands were captured (ImageQuant™ LAS 4000, GE Healthcare, Chicago, IL, USA) and quantified (Multi Gauge V3.0 software, Fujifilm, Tokyo, Japan).

[4] = test system: NLRP3; assay: Western blot NLRP3 in MPP^+-stimulated HMC3 cells; assay type: cell-based, human; conditions: HMC3, 4 mM MPP^+ alone; untreated = 100%
Experimental: as §1

[5] = test system: caspase-6; assay: caspase-6 activity assay in MPP^+-treated BE(2)-M17 cells; assay type: cell-based, human; conditions: BE(2)-M17, 0.62 mM MPP^+ alone; untreated = 100%
Experimental: (§2) BE(2)-M17 cells were plated onto six-well (4 × 10^5/well) and treated with retinoic acid, LM compounds (10 μM), and MPP^+ as described. Cells were collected on day 7 and lysed by six freeze/thaw cycles. Types of substrates applied were: Ac-Tyr-Val-Ala-Asp-7-amino-4-trifluoromethyl coumarin (YVAD-AFC) for caspase-1, Ac-Val-Glu-Ile-Asp-7-amino-4-trifluoromethyl coumarin (VEID-AFC) for caspase-6 (BioVision, Milpitas, CA, USA), and Ac-Asp-Glu-Val-Asp-7-amido-4-methylcoumarin (DEVD-AMC) for caspase-3 (Sigma-Aldrich). The reaction mixtures were incubated for 1.5 h at 37°C per the manufacturer's instructions. The fluorescence intensity at 400 nm excitation and 505 nm emission (caspase-1 and caspase-6) or 360 nm excitation and 460 nm emission (caspase-3) wavelengths were recorded (BioTek FLx800).

[6] = test system: iNOS; assay: Western blot iNOS in MPP^+-stimulated HMC3 cells; assay type: cell-based, human; conditions: HMC3, 4 mM MPP^+ alone; untreated = 100%
Experimental: as §1

[7] = test system: IL-1β; assay: Western blot IL-1β in MPP^+-stimulated HMC3 cells; assay type: cell-based, human; conditions: HMC3, 4 mM MPP^+ alone; untreated = 100%
Experimental: as §1

[8] = test system: BE(2)-M17 cells; assay: cytotoxicity MTT assay in BE(2)-M17 cells; assay type: cell-based, human; conditions: MPP^+ at 0.62 mM
Experimental: (§3) Human HMC3 microglial (CRL-3304) and neuroblastoma BE(2)-M17 (CRL-2267) cells were obtained from American Type Culture Collection. BE(2)-M17 develops a better dopaminergic phenotype than SH-SY5Y when treated with retinoic acid to direct neuronal differentiation (Carvajal-Oliveros et al., [2022]). Cells were routinely maintained in Dulbecco's Modified Eagle Medium-Nutrient Mixture F12 (DMEM-F12) supplemented with 10% fetal bovine serum (FBS; Thermo Fisher Scientific, Waltham, MA, USA) in a 37°C incubator, with 95% relative humidity and 5% CO2 (NuAire, Plymouth, MN, USA).
(§4) To evaluate cytotoxicity of LM compounds and MPP^+, HMC3 (1 × 10^4) or BE(2)-M17 (2 × 10^4) cells were plated on 96-well dishes, grown for 20 h, and treated with LM compounds (1–100 μM) or MPP^+ [HMC3: 0–8 mM; BE(2)-M17: 0–5 mM]. Next day, 20 μl of tetrazolium dye 3-(4,5-dimethylthiazol-2-yl)-2,5-diphenyltetrazolium bromide (MTT, 5 mg/ml; Sigma-Aldrich) was added to the cells at 37°C for 3 h. The resulted insoluble purple formazan products were dissolved by lysis buffer (composition: 10% Triton X-100, 0.1 N HCl, 18% isopropanol). The absorbance of the dissolved product at optical density (OD) 570 nm was read by using a FLx800 fluorescence microplate spectrophotometer (Bio-Tek, Winooski, VT, USA). The half maximal inhibitory concentration (IC50) of LM compounds was determined through the construction of a dose-response curve. MPP^+ at 4 mM (HMC3 cell viability: 65%−69%) or 0.62 mM [BE(2)-M17 cell viability: 79%−84%] was selected to induce inflammation for further experiments.

[9] = test system: HMC3 cells; assay: cytotoxicity MTT assay in HMC3 cells; assay type: cell-based, human; conditions: MPP^+ at 4 mM
Experimental: as §3, §4

[10] = test system: caspase-1; assay: caspase-1 activity assay in MPP^+-treated BE(2)-M17 cells; assay type: cell-based, human; conditions: BE(2)-M17, 0.62 mM MPP^+ alone; untreated = 100%
Experimental: as §2

[11] = test system: IL-6; assay: Western blot IL-6 in MPP^+-stimulated HMC3 cells; assay type: cell-based, human; conditions: HMC3, 4 mM MPP^+ alone; untreated = 100%
Experimental: as §1

## Cc1ccc(/C=C/C(=O)c2c(O)c3ccccc3oc2=O)cc1 [LM-016]
[1]
  viability at 10 µM: 81 to 86%

## O=C(/C=C/c1ccccc1O)c1c(O)c2ccccc2oc1=O [LM-036]
[2]
  bioavailability and BBB penetration potential: good bioavailability and BBB penetration potential

## C[n+]1ccc(-c2ccccc2)cc1 [MPP^+, 1-methyl-4-phenyl pyridinium, reference compound]
[3]
  CASP1 expression: 218%
[4]
  NLRP3 expression: 233%
[5]
  caspase-6 activity: 116%
[6]
  iNOS expression: 156%
[7]
  IL-1β expression: 326%
[8]
  cell viability: 79%−84% and 80%
[9]
  cell viability: 65%−69%
[10]
  caspase-1 activity: 112%
[11]
  IL-6 expression: 182%
